Patent US11078193B2 (priority 2014, dated 2021)

Experiments:
[1] = ATP based toxicity assay (ATPlite), HepG2 cell line; settings: human, HepG2 cells, ATPlite (ATP levels)
Experimental: Alternatively, cytotoxicity was determined via an ATP-assay: The ATPlite kit from Perkin Elmer was used to assess compound cytotoxicity on the HepG2 cell line by determination of the ATP (adenosine triphosphate) levels. ATP is a marker for functional integrity and cell viability, because it is present in all metabolically active cells and any form of cell injury will result in a rapid decline in cellular ATP concentration. After compound incubation, 1 volume of ATPlite solution was added to the cells and the luminescence signal was measured.

[2] = Cytotoxicity, HepG2 cells, Resazurin assay; assay type: cell-based; settings: human
[3] = test system: HBV; assay: anti HBV activity, HepG2.117 inducibly HBV producing cell line (Tet-off), intracellular HBV DNA by realtime PCR; assay type: cell-based; settings: Hepatitis B virus, 72 h, HepG2.117 cells, 3 days of treatment

SMILES | CC50 at 4 days [1] [nM] | CC50 at 4 days [2] [nM] | EC50 [3] [nM]
Cn1cc(S(=O)(=O)NC2(C)CC(F)(F)C2)c(F)c1C(=O)Nc1ccnc(C#N)c1 [Compound 53, N-(2-cyano-4-pyridyl)-4-[(3,3-difluoro-1-methyl-cyclobutyl)sulfamoyl]-3-fluoro-1-methyl-pyrrole-2-carboxamide] | > 25000 | > 25000 | 40
Cn1cc(S(=O)(=O)NC2(C)CC(F)(F)C2)c(F)c1C(=O)Nc1ccnc(C(F)F)c1 [Compound 83, 4-[(3,3-difluoro-1-methyl-cyclobutyl)sulfamoyl]-N-[2-(difluoromethyl)-4-pyridyl]-3-fluoro-1-methyl-pyrrole-2-carboxamide] | > 25000 | > 25000 | 10
C[C@@H](NS(=O)(=O)c1cc(C(=O)Nc2ccnc(C(F)F)c2)n(C)c1)C(C)(F)F [Compound 100, 4-[[(1R)-2,2-difluoro-1-methyl-propyl]sulfamoyl]-N-[2-(difluoromethyl)-4-pyridyl]-1-methyl-pyrrole-2-carboxamide] | > 25000 | > 25000 | 80
C[C@@H](NS(=O)(=O)c1cn(C)c(C(=O)Nc2ccnc(Br)c2)c1Cl)C(F)(F)F [Compound 106, N-(2-bromo-4-pyridyl)-3-chloro-1-methyl-4-[[(1R)-2,2,2-trifluoro-1-methyl-ethyl]sulfamoyl]pyrrole-2-carboxamide] | > 25000 | > 25000 | 20
Cn1cc(S(=O)(=O)NC(C)(C)C(F)(F)F)c(F)c1C(=O)Nc1ccnc(Br)c1 [Compound 191, N-(2-bromo-4-pyridyl)-3-fluoro-1-methyl-4-[(2,2,2-trifluoro-1,1-dimethyl-ethyl)sulfamoyl]pyrrole-2-carboxamide] | > 25000 |  | 60
Cn1cc(S(=O)(=O)NC2(C(F)(F)F)CC2)c(F)c1C(=O)Nc1ccnc(C#N)c1 [Compound 192, N-(2-cyano-4-pyridyl)-3-fluoro-1-methyl-4-[[1-(trifluoromethyl)cyclopropyl]sulfamoyl]pyrrole-2-carboxamide] | > 25000 |  | 20
Cn1cc(S(=O)(=O)NC2(C(F)(F)F)CC2)c(F)c1C(=O)Nc1cc(F)nc(F)c1 [Compound 193, N-(2,6-difluoro-4-pyridyl)-3-fluoro-1-methyl-4-[[1-(trifluoromethyl)cyclopropyl]sulfamoyl]pyrrole-2-carboxamide] | > 25000 |  | 9
Cn1cc(S(=O)(=O)NC2(C(F)(F)F)CC2)c(F)c1C(=O)Nc1ccnc(Br)c1 [Compound 194, N-(2-bromo-4-pyridyl)-3-fluoro-1-methyl-4-[[1-(trifluoromethyl)cyclopropyl]sulfamoyl]pyrrole-2-carboxamide] | > 25000 |  | 20
Cn1cc(S(=O)(=O)NC2(C(F)(F)F)CC2)c(F)c1C(=O)Nc1ccnc(C(F)F)c1F [Compound 195, N-[2-(difluoromethyl)-3-fluoro-4-pyridyl]-3-fluoro-1-methyl-4-[[1-(trifluoromethyl)cyclopropyl]sulfamoyl]pyrrole-2-carboxamide] | > 25000 |  | 20
Cn1cc(S(=O)(=O)NC2(C(F)(F)F)CC2)c(F)c1C(=O)Nc1ccnc(C(F)F)c1 [Compound 196, N-[2-(difluoromethyl)-4-pyridyl]-3-fluoro-1-methyl-4-[[1-(trifluoromethyl)cyclopropyl]sulfamoyl]pyrrole-2-carboxamide] | > 25000 |  | 20
Cn1cc(S(=O)(=O)NC2(C)CC(F)(F)C2)c(F)c1C(=O)Nc1ccnc(C#N)c1F [Compound 197, N-(2-cyano-3-fluoro-4-pyridyl)-4-[(3,3-difluoro-1-methyl-cyclobutyl)sulfamoyl]-3-fluoro-1-methyl-pyrrole-2-carboxamide] | > 25000 |  | 10
Cn1cc(S(=O)(=O)NC2(C(F)(F)F)COC2)c(F)c1C(=O)Nc1ccnc(Cl)c1 [Compound 198] | > 25000 |  | 90
Cn1cc(S(=O)(=O)NC(C)(C)C(F)(F)F)c(F)c1C(=O)Nc1ccnc(C(F)F)c1F [Compound 201, N-[2-(difluoromethyl)-3-fluoro-4-pyridyl]-3-fluoro-1-methyl-4-[(2,2,2-trifluoro-1,1-dimethyl-ethyl)sulfamoyl]pyrrole-2-carboxamide] | > 25000 |  | 30
C[C@@H](NS(=O)(=O)c1cn(C)c(C(=O)Nc2ccnc(C(F)F)c2F)c1F)C(F)(F)F [Compound 202, N-[2-(difluoromethyl)-3-fluoro-4-pyridyl]-3-fluoro-1-methyl-4-[[(1R)-2,2,2-trifluoro-1-methyl-ethyl]sulfamoyl]pyrrole-2-carboxamide] | > 25000 |  | 8
Cn1cc(S(=O)(=O)NC2(C(F)(F)F)CC2)c(F)c1C(=O)Nc1ccnc(Br)c1F [Compound 203, N-(2-bromo-3-fluoro-4-pyridyl)-3-fluoro-1-methyl-4-[[1-(trifluoromethyl)cyclopropyl]sulfamoyl]pyrrole-2-carboxamide] | > 25000 |  | 8
C[C@@H](NS(=O)(=O)c1cn(C)c(C(=O)Nc2ccnc(C(F)F)c2F)c1F)C(C)(F)F [Compound 204, N-[2-(difluoromethyl)-3-fluoro-4-pyridyl]-4-[[(1R)-2,2-difluoro-1-methyl-propyl]sulfamoyl]-3-fluoro-1-methyl-pyrrole-2-carboxamide] | > 25000 |  | 10
Cc1c(S(=O)(=O)N[C@H](C)C(F)(F)F)c(F)c(C(=O)Nc2ccnc(Br)c2)n1C [Compound 205, N-(2-bromo-4-pyridyl)-3-fluoro-1,5-dimethyl-[[(1R)-2,2,2-trifluoro-1-methyl-ethyl]sulfamoyl]pyrrole-2-carboxamide] | > 25000 |  | 20
Cc1c(S(=O)(=O)N[C@H](C)C(F)(F)F)c(F)c(C(=O)Nc2ccnc(C(F)F)c2)n1C [Compound 206, N-[2-(difluoromethyl)-4-pyridyl]-3-fluoro-1,5-dimethyl-4-[[(1R)-2,2,2-trifluoro-1-methyl-ethyl]sulfamoyl]pyrrole-2-carboxamide] | > 25000 |  | 20
Cc1c(S(=O)(=O)N[C@H](C)C(F)(F)F)c(F)c(C(=O)Nc2ccnc(C(F)F)c2F)n1C [Compound 207, N-[2-(difluoromethyl)-3-fluoro-4-pyridyl]-3-fluoro-1,5-dimethyl-4-[[(1R)-2,2,2-trifluoro-1-methyl-ethyl]sulfamoyl]pyrrole-2-carboxamide] | > 25000 |  | 10
Cn1cc(S(=O)(=O)NC2(C(F)(F)F)COC2)c(F)c1C(=O)Nc1ccnc(C(F)F)c1F [Compound 208, N-[2-(difluoromethyl)-3-fluoro-4-pyridyl]-3-fluoro-1-methyl-4-[[3-(trifluoromethyl)oxetan-3-yl]sulfamoyl]pyrrole-2-carboxamide] | > 25000 |  | 40
Cn1cc(S(=O)(=O)NC2(C(F)(F)F)COC2)c(F)c1C(=O)Nc1ccnc(Br)c1 [Compound 209, N-(2-bromo-4-pyridyl)-3-fluoro-1-methyl-4-[[3-(trifluoromethyl)oxetan-3-yl]sulfamoyl]pyrrole-2-carboxamide] | > 25000 |  | 90
Cn1cc(S(=O)(=O)NC2(C(F)(F)F)COC2)c(F)c1C(=O)Nc1ccnc(C(F)F)c1 [Compound 210] | > 25000 |  | 70
Cn1cc(S(=O)(=O)NC2(C(F)(F)F)COC2)c(F)c1C(=O)Nc1cc(F)nc(F)c1 [Compound 211] | > 25000 |  | 50
Cn1cc(S(=O)(=O)NC2(C(F)(F)F)COC2)c(F)c1C(=O)Nc1ccnc(Cl)c1F [Compound 212, N-(2-chloro-3-fluoro-4-pyridyl)-3-fluoro-1-methyl-4-[[3-(trifluoromethyl)oxetan-3-yl]sulfamoyl]pyrrole-2-carboxamide] | > 25000 |  | 60
Cc1cc(NC(=O)c2c(F)c(S(=O)(=O)N[C@H](C)C(F)(F)F)cn2C)cc(Cl)n1 [Compound 213, N-(2-chloro-6-methyl-4-pyridyl)-3-fluoro-1-methyl-4-[[(1R)-2,2,2-trifluoro-1-methyl-ethyl]sulfamoyl]pyrrole-2-carboxamide] | > 25000 |  | 50
Cc1nc(NC(=O)c2c(F)c(S(=O)(=O)N[C@H](C)C(F)(F)F)cn2C)ccc1F [Compound 214, 3-fluoro-N-(5-fluoro-6-methyl-2-pyridyl)-1-methyl-4-[[(1R)-2,2,2-trifluoro-1-methyl-ethyl]sulfamoyl]pyrrole-2-carboxamide] | > 25000 |  | 80
C[C@@H](NS(=O)(=O)c1cn(C)c(C(=O)Nc2cc(F)nc(Cl)c2)c1F)C(F)(F)F [Compound 215, N-(2-chloro-6-fluoro-4-pyridyl)-3-fluoro-1-methyl-4-[[(1R)-2,2,2-trifluoro-1-methyl-ethyl]sulfamoyl]pyrrole-2-carboxamide] | > 25000 |  | 6
C[C@@H](NS(=O)(=O)c1cn(C)c(C(=O)Nc2cc(F)nc(Br)c2)c1F)C(F)(F)F [Compound 216, N-(2-bromo-6-fluoro-4-pyridyl)-3-fluoro-1-methyl-[[(1R)-2,2,2-trifluoro-1-methyl-ethyl]sulfamoyl]pyrrole-2-carboxamide] | > 25000 |  | 10
Cn1cc(S(=O)(=O)NC2CCN(CC(F)(F)F)CC2)c(F)c1C(=O)Nc1ccnc(Cl)c1 [Compound 217, N-(2-chloro-4-pyridyl)-3-fluoro-1-methyl-4-[[1-(2,2,2-trifluoroethyl)-4-piperidyl]sulfamoyl]pyrrole-2-carboxamide] | > 25000 |  | 460
